System: human liver cancer Bel7404
Assay: Compound 3 combined with lenvatinib, human liver cancer Bel7404 xenograft in nude mice
Type: in vivo
Conditions: po: lenvatinib 10 mg/kg, compound 3 400 mg/kg, combination 10 + 400
Source text: Experimental method: The model of human liver cancer Bel7404 transplant tumor in nude mice was established by subcutaneously inoculating human liver cancer Bel7404 cell lines into the armpits of nude mice. Cells were inoculated in an amount of 1×10^6, and after formation of the transplanted tumors by inoculation, the cells were passed 3 generations in nude mice before use. The vigorous growth of tumor tissue was cut into approximate 1.5 mm^3, and homogenized under sterile conditions, to prepare 1×10^7/mL of cell suspension. 0.1 mL of cell suspension was subcutaneously inoculated into the right armpit of nude mice. For transplanted tumors in nude mice, the diameter of the transplanted tumor was measured with vernier caliper. After the tumor grew to 100 mm^3, the animals were randomly divided into groups, with 6 animals in each group. Using the method of measuring tumor diameter, the anti-tumor effect of test compound was dynamically observed. Compound 3 was orally administered at 400 mg/kg, once a day, for three weeks; lenvartinib was also orally administered at 10 mg/kg, once a day, for two weeks. The measurement frequency of tumor diameter was once every three days. The animals in the negative control group were orally given an equal amount of physiological saline. The effect of combined medicaments was evaluated based on the Q value calculated by the Jin's formula: […]
Ea+b represents the tumor inhibitory rate of the combined medicaments, while Ea and Eb represent the tumor inhibitory rates of medicament A and medicament B, respectively. For example, the Q value of 0.85-1.15 means additive action (+), and the Q value of >1.15 means synergistic action (++).

Structure (SMILES): COc1cc(/C=C(/C(=O)O)c2cc(OC)c(OC)c(OC)c2)cc(OC)c1 [Compound 3, (E)-3-(3,5-dimethoxyphenyl)-2-(3,4,5-trimethoxyphenyl)acrylic acid]
- RTV (d 21): 3.54 ± 1.87
- Terminal weight: 22.4 ± 0.6 g
- Tumor inhibitory rate %: 68.47%
